Literature values as cited in patent US20100209495A1, “GRANULATES, PROCESS FOR PREPARING THEM AND PHARMACEUTICAL PRODUCTS CONTAINING THEM” (Mylan Laboratories, Inc., priority 2008, published 2010).

Settings: at 37° C.

water solubility: 5 mg/1000 ml
Structure (SMILES): CC(O)(CS(=O)(=O)c1ccc(F)cc1)C(=O)Nc1ccc(C#N)c(C(F)(F)F)c1 (stereo not shown) [bicalutamide, N-[4-cyano-3-(trifluoromethyl)phenyl]-3-(4-fluorophenyl) sulfonyl-2-hydroxy-2-methyl-propanamide]
